Measurements published in PubChem BioAssay AID463224 (The Scripps Research Institute Molecular Screening Center, 2010).

Target: Serine/threonine-protein phosphatase 5 (Homo sapiens) (UniProt P53041)
Assay: PP5 inhibitor potency, dose response, orthogonal assay for PP5 inhibitor project, biochemical, radiolabel, powder samples (AID 463224)
Settings: purified PP5c, 33P-phosphohistone dephosphorylation, scintillation

Serine/threonine-protein phosphatase 5 (Homo sapiens), sequence (P53041 whole entry, looked up): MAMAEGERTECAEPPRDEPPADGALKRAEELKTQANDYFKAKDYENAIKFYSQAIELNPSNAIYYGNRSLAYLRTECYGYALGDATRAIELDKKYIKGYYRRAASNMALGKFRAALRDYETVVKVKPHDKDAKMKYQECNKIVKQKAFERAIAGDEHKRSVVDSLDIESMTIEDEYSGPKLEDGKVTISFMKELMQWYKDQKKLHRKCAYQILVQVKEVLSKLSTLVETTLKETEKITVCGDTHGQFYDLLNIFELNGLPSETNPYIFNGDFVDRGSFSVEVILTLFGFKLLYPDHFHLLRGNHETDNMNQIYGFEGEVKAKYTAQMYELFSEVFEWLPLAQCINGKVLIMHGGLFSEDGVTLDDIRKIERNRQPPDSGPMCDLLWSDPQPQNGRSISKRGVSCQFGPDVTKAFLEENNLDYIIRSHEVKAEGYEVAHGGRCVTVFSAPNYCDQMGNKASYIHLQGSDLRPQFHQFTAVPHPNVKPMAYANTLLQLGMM

## O=C(O)C1C2CCC(O2)C1C(=O)NC1CCCCC1 (configuration not stated)
  IC50: 13.5 µM

## O=C(O)c1n[nH]nc1-c1ccccc1
  IC50: 40.6 µM
